Laboratory results reported in publication PMC10656490, “Sequence-based prediction of the intrinsic solubility of peptides containing non-natural amino acids” (Nature Communications, 2023).
Like-named read-outs stand apart in the source and are kept apart here. Where a SMILES comes first, the peptide text is derived from it. [ ]: non-standard residue; d: D form. Cha = N[C@@H](CC1CCCCC1)C(=O)O; Cit = NC(=O)NCCC[C@H](N)C(=O)O; Nle = CCCC[C@H](N)C(=O)O; Aib = CC(C)(N)C(=O)O

Assay: Solubility by ultracentrifugation (GLP-1 variants)
Type: physicochemical
Conditions: for Ultracentrifugation: GLP1 variants, Figure 3c; for Ultracentrifugation / First Run / Second Run: in mg/mL; for First Run / Second Run: source data Supplementary Fig. 4, GLP-1 variants, 2 stands where Table 3 prints S; for solubility: 10 mM citrate 10 mM phosphate buffer, pH 7, GLP-1 variants, 2 mg/mL in 10 mM citrate 10 mM phosphate pH 7, 30 min 500,000 g 4 °C
Description: Relative solubility was measured using a recently developed PEG precipitation assay. For all PYY variants the standard assay worked well, and no changes had to be implemented (Fig. 2a). […] Moreover, to ensure that the results stemming from the AMS assay are consistent and reliable, we performed the 18 A experiments twice independently on different days. The results confirmed that they are indeed replicable, and we were therefore confident to use them for the validation of our approach (Supplementary Fig. 3). […] Even at final concentrations of 0.33 mg/mL (instead of 1 mg/mL) most variants remained insoluble. We used ultracentrifugation to determine the relative solubilities of the GLP-1 variants (Table 3). To confirm the reliability of this method we replicated the results on a different day with the same stock solutions (Supplementary Fig. 4).
Aliquots of 1 mg were prepared from the purified and lyophilised stocks. […] Briefly, a precipitant is titrated in increasing concentration to a fixed concentration of protein to induce precipitation of the protein. The samples are incubated for 48 h at 4° after mixing. The samples are centrifuged and the remaining protein concentration is measured in the supernatant using a plate reader. PYY and 18 A variants were dissolved in 10 mM citrate 10 mM phosphate buffer at pH 7 for a final concentration of 3 mg/mL. The assay was run with 50% 6000 PEG for PYY and with 3.8 M AMS for 18 A. To improve throughput, a multichannel robot was employed to measure several peptides at once with the workflow being kept the same as described previously. […] 120 µL of each sample were centrifuged using an OptimaTLX Ultracentrifuge and spinning for 30 min at 500,000 g at 4 °C. The supernatant was removed, and the peptide concentration was measured using a NanoDrop.

[1] = run 1, read-out: Run 1 solubility (peptide concentration in supernatant)
[2] = run 2, read-out: Run 2 solubility (peptide concentration in supernatant)

Ultracentrifugation	First Run	Second Run	solubility [1]	solubility [2]	Structure (SMILES)
0.08054	0.09475	0.06633	90 µg/mL	70 µg/mL	CC[C@H](C)[C@H](NC(=O)[C@H](Cc1ccccc1)NC(=O)[C@H](CCC(=O)O)NC(=O)[C@H](CCCCN)NC(=O)[C@H](C)NC(=O)C(C)(C)NC(=O)[C@H](CCC(N)=O)NC(=O)CNC(=O)[C@H](CCC(=O)O)NC(=O)[C@H](CC(C)C)NC(=O)[C@H](Cc1ccc(O)cc1)NC(=O)[C@H](CO)NC(=O)[C@H](CO)NC(=O)[C@@H](NC(=O)[C@H](CC(=O)O)NC(=O)[C@H](CO)NC(=O)[C@@H](NC(=O)[C@H](Cc1ccccc1)NC(=O)[C@@H](NC(=O)CNC(=O)[C@H](CCC(=O)O)NC(=O)[C@H](C)NC(=O)[C@@H](N)Cc1c[nH]cn1)[C@@H](C)O)[C@@H](C)O)C(C)C)C(=O)N[C@@H](C)C(=O)N[C@@H](Cc1c[nH]c2ccccc12)C(=O)N[C@@H](CC(C)C)C(=O)N[C@H](C(=O)N[C@@H](CCCCN)C(=O)NCC(=O)N[C@@H](CCCNC(=N)N)C(N)=O)C(C)C [Compound 5] (H-HAEGTFTSDVSSYLEGQ[Aib]AKEFIAWLVKGR-NH2; N-terminus assumed)
2	2	2	> 2000 µg/mL	> 2000 µg/mL	CC[C@H](C)[C@H](NC(=O)[C@H](Cc1ccccc1)NC(=O)[C@H](CCC(=O)O)NC(=O)[C@H](CCCCN)NC(=O)[C@H](C)NC(=O)[C@H](CCCNC(N)=O)NC(=O)[C@H](CCC(N)=O)NC(=O)CNC(=O)[C@H](CCC(=O)O)NC(=O)[C@H](CC(C)C)NC(=O)[C@H](Cc1ccc(O)cc1)NC(=O)[C@H](CO)NC(=O)[C@H](CO)NC(=O)[C@@H](NC(=O)[C@H](CC(=O)O)NC(=O)[C@H](CO)NC(=O)[C@@H](NC(=O)[C@H](Cc1ccccc1)NC(=O)[C@@H](NC(=O)CNC(=O)[C@H](CCC(=O)O)NC(=O)[C@H](C)NC(=O)[C@@H](N)Cc1c[nH]cn1)[C@@H](C)O)[C@@H](C)O)C(C)C)C(=O)N[C@@H](C)C(=O)N[C@@H](Cc1c[nH]c2ccccc12)C(=O)N[C@@H](CC(C)C)C(=O)N[C@H](C(=O)N[C@@H](CCCCN)C(=O)NCC(=O)N[C@@H](CCCNC(=N)N)C(N)=O)C(C)C [Compound 6] (H-HAEGTFTSDVSSYLEGQ[Cit]AKEFIAWLVKGR-NH2; N-terminus assumed)
0.8319	0.8416	0.8222	840 µg/mL	820 µg/mL	CC[C@H](C)[C@H](NC(=O)[C@H](Cc1ccccc1)NC(=O)[C@H](CCC(=O)O)NC(=O)[C@H](CCCCN)NC(=O)[C@H](C)NC(=O)[C@H](CC1CCCCC1)NC(=O)[C@H](CCC(N)=O)NC(=O)CNC(=O)[C@H](CCC(=O)O)NC(=O)[C@H](CC(C)C)NC(=O)[C@H](Cc1ccc(O)cc1)NC(=O)[C@H](CO)NC(=O)[C@H](CO)NC(=O)[C@@H](NC(=O)[C@H](CC(=O)O)NC(=O)[C@H](CO)NC(=O)[C@@H](NC(=O)[C@H](Cc1ccccc1)NC(=O)[C@@H](NC(=O)CNC(=O)[C@H](CCC(=O)O)NC(=O)[C@H](C)NC(=O)[C@@H](N)Cc1c[nH]cn1)[C@@H](C)O)[C@@H](C)O)C(C)C)C(=O)N[C@@H](C)C(=O)N[C@@H](Cc1c[nH]c2ccccc12)C(=O)N[C@@H](CC(C)C)C(=O)N[C@H](C(=O)N[C@@H](CCCCN)C(=O)NCC(=O)N[C@@H](CCCNC(N)=O)C(N)=O)C(C)C [Compound 7] (H-HAEGTFTSDVSSYLEGQ[Cha]AKEFIAWLVKG[Cit]-NH2; N-terminus assumed)

Further lines, the compound ahead of its results:

Structure (SMILES)	Ultracentrifugation	First Run	Second Run	solubility [1]	solubility [2]
CC[C@H](C)[C@H](NC(=O)[C@H](Cc1ccccc1)NC(=O)[C@H](CCC(=O)O)NC(=O)[C@H](CCCCN)NC(=O)[C@H](C)NC(=O)[C@H](C)NC(=O)[C@H](CCC(N)=O)NC(=O)CNC(=O)[C@H](CCC(=O)O)NC(=O)[C@H](CC(C)C)NC(=O)[C@H](Cc1ccc(O)cc1)NC(=O)[C@H](CO)NC(=O)[C@H](CO)NC(=O)[C@@H](NC(=O)[C@H](CC(=O)O)NC(=O)[C@H](CO)NC(=O)[C@@H](NC(=O)[C@H](Cc1ccccc1)NC(=O)[C@@H](NC(=O)CNC(=O)[C@H](CCC(=O)O)NC(=O)[C@H](C)NC(=O)[C@@H](N)Cc1c[nH]cn1)[C@@H](C)O)[C@@H](C)O)C(C)C)C(=O)N[C@@H](C)C(=O)N[C@@H](Cc1c[nH]c2ccccc12)C(=O)N[C@@H](CC(C)C)C(=O)N[C@H](C(=O)N[C@@H](CCCCN)C(=O)NCC(=O)N[C@@H](CCCNC(=N)N)C(N)=O)C(C)C [Compound 1, reference compound]	0.9813	0.5803	1.382	–	–
CC[C@H](C)[C@H](NC(=O)[C@H](Cc1ccccc1)NC(=O)[C@H](CCC(=O)O)NC(=O)[C@H](CCCCN)NC(=O)[C@H](C)NC(=O)[C@H](CC1CCCCC1)NC(=O)[C@H](CCC(N)=O)NC(=O)CNC(=O)[C@H](CCC(=O)O)NC(=O)[C@H](CC(C)C)NC(=O)[C@H](Cc1ccc(O)cc1)NC(=O)[C@H](CO)NC(=O)[C@H](CO)NC(=O)[C@@H](NC(=O)[C@H](CC(=O)O)NC(=O)[C@H](CO)NC(=O)[C@@H](NC(=O)[C@H](Cc1ccccc1)NC(=O)[C@@H](NC(=O)CNC(=O)[C@H](CCC(=O)O)NC(=O)[C@H](C)NC(=O)[C@@H](N)Cc1c[nH]cn1)[C@@H](C)O)[C@@H](C)O)C(C)C)C(=O)N[C@@H](C)C(=O)N[C@@H](Cc1c[nH]c2ccccc12)C(=O)N[C@@H](CC(C)C)C(=O)N[C@H](C(=O)N[C@@H](CCCCN)C(=O)NCC(=O)N[C@@H](CCCNC(=N)N)C(N)=O)C(C)C [Compound 2] (H-HAEGTFTSDVSSYLEGQ[Cha]AKEFIAWLVKGR-NH2; N-terminus assumed)	0	0	0	–	–
CCCC[C@H](NC(=O)[C@H](CCC(N)=O)NC(=O)CNC(=O)[C@H](CCC(=O)O)NC(=O)[C@H](CC(C)C)NC(=O)[C@H](Cc1ccc(O)cc1)NC(=O)[C@H](CO)NC(=O)[C@H](CO)NC(=O)[C@@H](NC(=O)[C@H](CC(=O)O)NC(=O)[C@H](CO)NC(=O)[C@@H](NC(=O)[C@H](Cc1ccccc1)NC(=O)[C@@H](NC(=O)CNC(=O)[C@H](CCC(=O)O)NC(=O)[C@H](C)NC(=O)[C@@H](N)Cc1c[nH]cn1)[C@@H](C)O)[C@@H](C)O)C(C)C)C(=O)N[C@@H](C)C(=O)N[C@@H](CCCCN)C(=O)N[C@@H](CCC(=O)O)C(=O)N[C@@H](Cc1ccccc1)C(=O)N[C@H](C(=O)N[C@@H](C)C(=O)N[C@@H](Cc1c[nH]c2ccccc12)C(=O)N[C@@H](CC(C)C)C(=O)N[C@H](C(=O)N[C@@H](CCCCN)C(=O)NCC(=O)N[C@@H](CCCNC(=N)N)C(N)=O)C(C)C)[C@@H](C)CC [Compound 3] (H-HAEGTFTSDVSSYLEGQ[Nle]AKEFIAWLVKGR-NH2; N-terminus assumed)	0.1242	0.086	0.1624	90 µg/mL	160 µg/mL
CC[C@H](C)[C@H](NC(=O)[C@H](Cc1ccccc1)NC(=O)[C@H](CCC(=O)O)NC(=O)[C@H](CCCCN)NC(=O)[C@H](C)NC(=O)[C@H](CCCCNC(C)=O)NC(=O)[C@H](CCC(N)=O)NC(=O)CNC(=O)[C@H](CCC(=O)O)NC(=O)[C@H](CC(C)C)NC(=O)[C@H](Cc1ccc(O)cc1)NC(=O)[C@H](CO)NC(=O)[C@H](CO)NC(=O)[C@@H](NC(=O)[C@H](CC(=O)O)NC(=O)[C@H](CO)NC(=O)[C@@H](NC(=O)[C@H](Cc1ccccc1)NC(=O)[C@@H](NC(=O)CNC(=O)[C@H](CCC(=O)O)NC(=O)[C@H](C)NC(=O)[C@@H](N)Cc1c[nH]cn1)[C@@H](C)O)[C@@H](C)O)C(C)C)C(=O)N[C@@H](C)C(=O)N[C@@H](Cc1c[nH]c2ccccc12)C(=O)N[C@@H](CC(C)C)C(=O)N[C@H](C(=O)N[C@@H](CCCCN)C(=O)NCC(=O)N[C@@H](CCCNC(=N)N)C(N)=O)C(C)C [Compound 4] (H-HAEGTFTSDVSSYLEGQK(Ac)AKEFIAWLVKGR-NH2; N-terminus assumed)	2	2	2	> 2000 µg/mL	> 2000 µg/mL
